Assay results taken from ChEMBL document CHEMBL5532646, “Discovery of 4-(N-dithiobenzyl piperazine)-1,8-naphthalimide as a potent multi-target antitumor agent with good efficacy, limited toxicity, and low resistance” (Eur J Med Chem, 2024).
pIC50: −log10 of the molar value. Activity calls are given as the source filed them. The calls are words filed in the database; no cut-off is given here.

Assays:
T-24 [1] = test: Induction of ferroptosis in human T24 cells assessed as increase in FACL4 level at 5 uM incubated for 24 hrs by Western blot analysis; type: functional, cell-based
T-24 [2] = test: Downregulation of pAKT1 at S473 level in human T24 cells at 2 to 8 uM incubated for 24 hrs by Western blot analysis; type: functional, cell-based; conditions: dose 2-8 µM
[3] = Toxicity in nude mouse model xenografted with human T24 cells assessed as pathological change in spleen at 15 mg/kg, ip administered once every two days for 21 days; type: organism-based, T-24; conditions: in vivo, 504 h, time 21 day
T-24 [4] = test: Anti-migratory activity against human T24 cells incubated upto 48 hrs by wound healing assay; type: functional, cell-based
T-24 [5] = test: Antitumor activity against human T24 cells assessed as effect on MAPK signaling pathway at 5 uM incubated for 24 hrs by TMT/iTRAQ analysis; type: functional, cell-based
MGC-803 = test: Antiproliferative activity against human MGC-803 cells incubated for 48 hrs by MTT assay; type: functional, cell-based; conditions: MGC-803, 48 h
T-24 [6] = test: Induction of cell cycle arrest at S phase in human T24 cells at 8 uM incubated for 24 hrs by flow cytometry (reference value: 12.39 %); type: functional
T-24 [7] = test: Downregulation of mTOR level in human T24 cells at 2 to 8 uM incubated for 24 hrs by Western blot analysis; type: functional, cell-based; conditions: dose 2-8 µM
T-24 [8] = test: Induction of cell cycle arrest at G0/G1 phase in human T24 cells at 2 uM incubated for 24 hrs by flow cytometry (reference value: 75.31 %); type: functional
[9] = Toxicity in nude mouse model xenografted with human HepG2 cells assessed as pathological change in lung at 15 mg/kg, ip administered once every two days for 21 days; type: organism-based; conditions: in vivo, 504 h, time 21 day
T-24 [10] = test: Antitumor activity against human T24 cells assessed as effect on ferroptosis signaling pathway at 5 uM incubated for 24 hrs by TMT/iTRAQ analysis; type: functional, cell-based
T-24 [11] = test: Induction of cell cycle arrest at S phase in human T24 cells at 5 uM incubated for 24 hrs by flow cytometry (reference value: 12.39 %); type: functional
[12] = Toxicity in nude mouse model xenografted with human T24 cells assessed as pathological change in heart at 15 mg/kg, ip administered once every two days for 21 days; type: organism-based, T-24; conditions: in vivo, 504 h, time 21 day
T-24 [13] = test: Induction of cell cycle arrest at G0/G1 phase in human T24 cells at 8 uM incubated for 24 hrs by flow cytometry (reference value: 75.31 %); type: functional
T-24 [14] = test: Effect on cell cycle pathway in human T24 cells at 5 uM incubated for 24 hrs by KEGG analysis; type: functional, cell-based
T-24 [15] = test: Inhibition of cell proliferation of human T24 cells at 1 to 5 uM incubated for 7 days by colony formation assay; type: functional, cell-based; conditions: dose 1-5 µM, time 7.0 day
T-24 [16] = test: Downregulation of AKT1 level in human T24 cells at 2 to 8 uM incubated for 24 hrs by Western blot analysis; type: functional, cell-based; conditions: dose 2-8 µM
[17] = Toxicity in nude mouse model xenografted with human T24 cells assessed as pathological change in liver at 15 mg/kg, ip administered once every two days for 21 days; type: organism-based, T-24; conditions: in vivo, 504 h, time 21 day
T-24 [18] = test: Upregulation of ERK1/2 phosphorylation in human T24 cells incubated for 24 hrs by Western blot analysis; type: functional, cell-based; conditions: dose 2-8 µM
HUVEC = test: Antiproliferative activity against HUVEC cells incubated for 48 hrs by MTT assay; type: functional, cell-based; conditions: Homo sapiens
T-24 [19] = test: Induction of ferroptosis in human T24 cells assessed as reduction in mitochondrial cristae at 5 uM incubated for 24 hrs by TEM analysis; type: functional, cell-based
T-24 [20] = test: Induction of cell cycle arrest at S phase in human T24 cells at 2 uM incubated for 24 hrs by flow cytometry (reference value: 12.39 %); type: functional
[21] = Toxicity in nude mouse model xenografted with human HepG2 cells assessed as pathological change in spleen at 15 mg/kg, ip administered once every two days for 21 days; type: organism-based; conditions: in vivo, 504 h, time 21 day

**Q.** With `CN(C)CCN1C(=O)c2cccc3c(N4CCN(C(=S)SCc5ccccc5)CC4)ccc(c23)C1=O` as the compound, how does the Activity (T-24 [1]) read?
**A.** Active

**Q.** What about the Activity (T-24 [2]) of the same compound?
**A.** Active

**Q.** What about the Activity [3] of the same compound?
**A.** Non-Toxic

**Q.** And the Activity (T-24 [4])?
**A.** Dose-Dependent Effect

**Q.** What about the Activity (T-24 [5]) of the same compound?
**A.** Active

**Q.** What about the pIC50 (MGC-803) of the same compound?
**A.** 5.28

**Q.** And the Activity (T-24 [6])?
**A.** 13.21%

**Q.** What about the Activity (T-24 [7]) of the same compound?
**A.** Active

**Q.** What about the Activity (T-24 [8]) of the same compound?
**A.** 42.37%

**Q.** What about the Activity [9] of the same compound?
**A.** Non-Toxic

**Q.** What about the Activity (T-24 [10]) of the same compound?
**A.** Active

**Q.** And the Activity (T-24 [11])?
**A.** 30.58%

**Q.** And the Activity [12]?
**A.** Non-Toxic

**Q.** What about the Activity (T-24 [13]) of the same compound?
**A.** 70.18%

**Q.** What about the Activity (T-24 [14]) of the same compound?
**A.** Active

**Q.** And the inhibition (T-24 [15])?
**A.** Active

**Q.** What about the Activity (T-24 [16]) of the same compound?
**A.** Active

**Q.** And the Activity [17]?
**A.** Non-Toxic

**Q.** And the Activity (T-24 [18])?
**A.** Dose-Dependent Effect

**Q.** And the pIC50 (HUVEC)?
**A.** 4.78

**Q.** And the Activity (T-24 [19])?
**A.** Active

**Q.** What about the Activity (T-24 [20]) of the same compound?
**A.** 36.93%

**Q.** What about the Activity [21] of the same compound?
**A.** Non-Toxic
